Data taken from patent US20240116985A1, “STAPLED PEPTIDES AND METHODS THEREOF” (priority 2020, published 2024).
In brackets after ≈: the same amount, converted by molar mass. Like-named read-outs stand apart in the source and are kept apart here.

How the values were obtained:
[1] = target: T1, full-length beta-Catenin (Uniprot ID P35222) (Homo sapiens, UniProt P35222); experiment: Fluorescence polarization IC50 (beta-catenin / 5FAM-TCF4 10-53 competition); assay type: binding
T1 construct: 10 nM full-length beta-Catenin (Uniprot ID P35222)
T1 sequence (P35222 1-781): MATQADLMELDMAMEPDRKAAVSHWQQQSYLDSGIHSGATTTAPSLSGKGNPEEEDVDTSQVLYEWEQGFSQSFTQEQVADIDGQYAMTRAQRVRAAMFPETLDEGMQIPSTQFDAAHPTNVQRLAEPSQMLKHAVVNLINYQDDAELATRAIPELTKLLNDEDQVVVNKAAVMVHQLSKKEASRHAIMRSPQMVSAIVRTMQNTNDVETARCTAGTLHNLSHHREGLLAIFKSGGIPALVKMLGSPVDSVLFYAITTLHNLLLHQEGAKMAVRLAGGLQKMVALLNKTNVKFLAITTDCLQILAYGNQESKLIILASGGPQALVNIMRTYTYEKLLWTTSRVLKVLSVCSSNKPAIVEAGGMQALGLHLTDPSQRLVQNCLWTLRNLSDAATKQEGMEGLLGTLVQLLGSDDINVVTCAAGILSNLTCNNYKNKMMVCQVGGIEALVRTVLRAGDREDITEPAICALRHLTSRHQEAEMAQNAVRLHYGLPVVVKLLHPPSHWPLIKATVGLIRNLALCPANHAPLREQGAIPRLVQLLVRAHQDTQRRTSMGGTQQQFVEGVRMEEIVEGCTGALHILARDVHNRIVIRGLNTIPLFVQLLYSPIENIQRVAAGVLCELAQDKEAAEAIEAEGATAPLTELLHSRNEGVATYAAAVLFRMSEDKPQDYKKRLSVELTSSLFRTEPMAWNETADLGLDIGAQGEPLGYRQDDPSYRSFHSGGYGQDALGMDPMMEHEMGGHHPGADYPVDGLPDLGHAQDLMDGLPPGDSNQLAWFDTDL

CHI Log D procedure = assay type: physicochemical; conditions: for CHI Log D: pH 7.4; for chromatographic logD: pH 7.4, CHI Log D
Solubility in PBS = assay type: physicochemical
Outline: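 The PBS solution was ultracentrifuged and the supernatant analyzed by HPLC. Its peak area was divided by that of a 50 μM peptide DMSO reference injection and multiplied by 50 uM to give solubility.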

[2] = target: T2, beta-catenin/TCF4 engagement (Homo sapiens, UniProt P35222); experiment: Nano-BRET target engagement assay (B-cat-Halo & TCF4-Luc in HEK293 cells); assay type: cell-based
T2 construct: expressed in transfected cells; host or cells: HEK293
T2 sequence (P35222 1-781): T1 sequence (P35222 1-781)

[3] = fluorescence polarization, read-out: beta-Catenin FP IC50
[4] = absolute IC50, read-out: NanoBRET Abs IC50

Structure (SMILES) | IC50 [1, 3] | IC50 ([1]; read-out: FP EC50) | CHI Log D (CHI Log D procedure) | Solubility (Solubility in PBS) | IC50 [2, 4] | chromatographic logD (CHI Log D procedure) | Solubility (Solubility in PBS; Solubility (uM)) | IC50 ([2]; read-out: NanoBRET IC50) | inhibition at 10 µM ([2]; HEK293, @ 10 uM, read-out: NanoBRET % inh @ 10 uM)
CC(=O)N1CCC[C@]12CC=CCCCC1(CCCC=CCCCCCC[C@@](C)(C(=O)N[C@@H](Cc3ccccc3)C(=O)N[C@@H](Cc3csc4ccccc34)C(=O)N[C@@H](CCC(N)=O)C(N)=O)NC(=O)[C@H](CC(N)=O)NC(=O)[C@H](Cc3ccccc3)NC(=O)[C@H](C)NC(=O)[C@H](C)NC(=O)[C@H](CCC(=O)O)NC(=O)[C@H](CC(=O)O)NC1=O)NC(=O)[C@H](CC(C)C)NC(=O)[C@H](CC(=O)O)NC2=O (stereo partly drawn) [I-577, Ac-PL3-Asp-Leu-B5-Asp-Glu-Ala-Ala-Phe-Asn-S8-Phe-BztA-Gln-NH2] | 13 nM | 13 nM | 2.376 | 47 µM (≈ 87.9 µg/mL) | 10400 nM |  |  |  | 
CC(=O)N1CCC[C@]12CC=CCCCC1(CCCC=CCCCCCC[C@@](C)(C(=O)N[C@@H](Cc3ccccc3)C(=O)N[C@@H](Cc3csc4ccccc34)C(=O)N[C@@H](Cc3c[nH]cn3)C(N)=O)NC(=O)[C@H](CC(N)=O)NC(=O)[C@H](Cc3ccccc3)NC(=O)[C@H](C)NC(=O)[C@H](C)NC(=O)[C@H](CC(=O)O)NC(=O)[C@H](CC(=O)O)NC1=O)NC(=O)[C@H](CC(C)(C)C)NC(=O)[C@H](CC(=O)O)NC2=O (stereo partly drawn) [I-582, Ac-PL3-Asp-Npg-B5-Asp-Asp-Ala-Ala-Phe-Asn-S8-Phe-BztA-His-NH2] | 17.5 nM |  |  |  | 15800 nM | 2.5 | 22 µM (≈ 41.3 µg/mL) |  | 
CC(=O)N1CCC[C@]12CC=CCCCC1(CCCC=CCCCCCC[C@@](C)(C(=O)N[C@@H](Cc3ccccc3)C(=O)N[C@@H](Cc3csc4ccccc34)C(=O)N[C@@H](CCC(N)=O)C(N)=O)NC(=O)[C@H](CC(N)=O)NC(=O)[C@H](Cc3ccccc3)NC(=O)[C@H](C)NC(=O)[C@H](C)NC(=O)[C@H](CCC(=O)O)NC(=O)[C@H](CC(=O)O)NC1=O)NC(=O)[C@H](CC1CCCCC1)NC(=O)[C@H](CC(=O)O)NC2=O (stereo partly drawn) [I-620, Ac-PL3-Asp-Cha-B5-Asp-Glu-Ala-Ala-Phe-Asn-S8-Phe-BztA-Gln-NH2] | 35 nM | 35 nM | 2.688 | 48 µM (≈ 91.6 µg/mL) | 12000 nM |  |  | 5800 nM | 
CC(=O)N1CCC[C@]12CC=CCCCC1(CCCC=CCCCCCC[C@@](C)(C(=O)N[C@@H](Cc3ccccc3)C(=O)N[C@@H](Cc3csc4ccccc34)C(N)=O)NC(=O)[C@H](CCCNC(N)=O)NC(=O)[C@H](Cc3ccccc3)NC(=O)[C@H](C)NC(=O)[C@H](C)NC(=O)[C@H](CCC(=O)O)NC(=O)[C@H](CC(=O)O)NC1=O)NC(=O)[C@H](CC(C)C)NC(=O)[C@H](CC(=O)O)NC2=O (stereo partly drawn) [I-629, Ac-PL3-Asp-Leu-B5-Asp-Glu-Ala-Ala-Phe-Cit-S8-Phe-BztA-NH2] | 36 nM | 685 nM | 3.109 | 40 µM (≈ 71.4 µg/mL) | 30000 nM |  |  |  | 
CC[C@H](C)[C@@H]1NC(=O)[C@H](CC(=O)O)NC(=O)[C@]2(CC=CCCCC3(CCCC=CCCCCCC[C@@](C)(C(=O)N[C@@H](Cc4ccccc4)C(=O)N[C@@H](Cc4csc5ccccc45)C(=O)N[C@@H](CCC(N)=O)C(N)=O)NC(=O)[C@H](CCC(N)=O)NC(=O)[C@H](Cc4ccccc4)NC(=O)[C@H](C)NC(=O)[C@H](CCC(N)=O)NC(=O)[C@H](CCC(=O)O)NC(=O)[C@H](CC(=O)O)NC3=O)NC1=O)CCCN2C(C)=O (stereo partly drawn) [I-654, Ac-PL3-Asp-Ile-B5-Asp-Glu-Gln-Ala-Phe-Gln-S8-Phe-BztA-Gln-NH2] | 20 nM | 20 nM | 2.121 | 47 µM (≈ 91.2 µg/mL) | 15000 nM |  |  |  | 
CC[C@H](C)[C@@H]1NC(=O)[C@H](CC(=O)O)NC(=O)[C@]2(CC=CCCCC3(CCCC=CCCCCCC[C@@](C)(C(=O)N[C@@H](Cc4ccccc4)C(=O)N[C@@H](Cc4csc5ccccc45)C(=O)N[C@@H](CCC(N)=O)C(N)=O)NC(=O)[C@H](CCC(N)=O)NC(=O)[C@H](Cc4ccccc4)NC(=O)[C@H](CO)NC(=O)[C@H](C)NC(=O)[C@H](CCC(=O)O)NC(=O)[C@H](CC(=O)O)NC3=O)NC1=O)CCCN2C(C)=O (stereo partly drawn) [I-662, Ac-PL3-Asp-Ile-B5-Asp-Glu-Ala-Ser-Phe-Gln-S8-Phe-BztA-Gln-NH2] | 26 nM | 26 nM | 2.125 | 46 µM (≈ 87.4 µg/mL) | 16100 nM |  |  |  | 
CC(=O)N1CCC[C@]12CC=CCCCC1(CCCC=CCCCCCC[C@@](C)(C(=O)N[C@@H](Cc3ccccc3)C(=O)N[C@@H](Cc3csc4ccccc34)C(=O)N[C@@H](CCC(N)=O)C(N)=O)NC(=O)[C@H](CC(N)=O)NC(=O)[C@H](Cc3ccccc3)NC(=O)[C@H](C)NC(=O)[C@H](C)NC(=O)[C@H](CCC(=O)O)NC(=O)[C@H](CC(=O)O)NC1=O)NC(=O)[C@H](CC(C)(C)C)NC(=O)[C@H](CC(=O)O)NC2=O (stereo partly drawn) [I-677, Ac-PL3-Asp-Npg-B5-Asp-Glu-Ala-Ala-Phe-Asn-S8-Phe-BztA-Gln-NH2] | 22 nM |  |  |  | 6700 nM | 2.45 | 49 µM (≈ 92.3 µg/mL) |  | 
CC(=O)N1CCC[C@]12CC=CCCCC1(CCCC=CCCCCCC[C@@](C)(C(=O)N[C@@H](Cc3ccsc3)C(=O)N[C@@H](Cc3csc4ccccc34)C(=O)N[C@@H](CCC(N)=O)C(N)=O)NC(=O)[C@H](CC(N)=O)NC(=O)[C@H](Cc3ccccc3)NC(=O)[C@H](C)NC(=O)[C@H](C)NC(=O)[C@H](CC(=O)O)NC(=O)[C@H](CC(=O)O)NC1=O)NC(=O)[C@H](CC(C)(C)C)NC(=O)[C@H](CC(=O)O)NC2=O (stereo partly drawn) [I-678, Ac-PL3-Asp-Npg-B5-Asp-Asp-Ala-Ala-Phe-Asn-S8-3Thi-BztA-Gln-NH2] | 26 nM | 26 nM | 2.329 | 49 µM (≈ 91.9 µg/mL) | 16800 nM |  |  |  | 
CC(=O)N1CCC[C@]12CC=CCCCC1(CCCC=CCCCCCC[C@@](C)(C(=O)N[C@@H](Cc3ccsc3)C(=O)N[C@@H](Cc3csc4ccccc34)C(=O)N[C@@H](CCC(N)=O)C(N)=O)NC(=O)[C@H](CC(N)=O)NC(=O)[C@H](Cc3ccccc3)NC(=O)[C@H](C)NC(=O)[C@H](C)NC(=O)[C@H](CC(=O)O)NC(=O)[C@H](CC(=O)O)NC1=O)NC(=O)[C@H](CC(C)(C)C)NC(=O)[C@H](CC(=O)O)NC2=O (stereo partly drawn) [I-679, Ac-PL3-Asp-Npg-B5-Asp-Asp-Ala-Ala-Phe-Asn-S8-3Thi-BztA-Gln-NH2] | 7 nM | 7 nM | 2.382 | 48 µM (≈ 90 µg/mL) | 17100 nM |  |  |  | 44.8%
CC(=O)N1CCC[C@]12CC=CCCCC1(CCCC=CCCCCCC[C@@](C)(C(=O)N[C@@H](Cc3ccsc3)C(=O)N[C@@H](Cc3csc4ccccc34)C(=O)N[C@@H](CCC(N)=O)C(N)=O)NC(=O)[C@H](CC(N)=O)NC(=O)[C@H](Cc3ccccc3)NC(=O)[C@H](C)NC(=O)[C@H](C)NC(=O)[C@H](CC(=O)O)NC(=O)[C@H](CC(=O)O)NC1=O)NC(=O)[C@H](CC(C)C)NC(=O)[C@H](CC(=O)O)NC2=O (stereo partly drawn) [I-680, Ac-PL3-Asp-Leu-B5-Asp-Asp-Ala-Ala-Phe-Asn-S8-3Thi-BztA-Gln-NH2] | 32 nM | 32 nM | 2.215 | 47 µM (≈ 87.5 µg/mL) | 34400 nM |  |  |  | 
CC(=O)N1CCC[C@]12CC=CCCCC1(CCCC=CCCCCCC[C@@](C)(C(=O)N[C@@H](Cc3ccsc3)C(=O)N[C@@H](Cc3csc4ccccc34)C(=O)N[C@@H](CCC(N)=O)C(N)=O)NC(=O)[C@H](CC(N)=O)NC(=O)[C@H](Cc3ccccc3)NC(=O)[C@H](C)NC(=O)[C@H](C)NC(=O)[C@H](CC(=O)O)NC(=O)[C@H](CC(=O)O)NC1=O)NC(=O)[C@H](CC(C)C)NC(=O)[C@H](CC(=O)O)NC2=O (stereo partly drawn) [I-681, Ac-PL3-Asp-Leu-B5-Asp-Asp-Ala-Ala-Phe-Asn-S8-3Thi-BztA-Gln-NH2] | 12 nM | 12 nM | 2.273 | 48 µM (≈ 89.3 µg/mL) | 25100 nM |  |  |  | 
